Laboratory results taken from patent US7713969B2, “Compositions and methods for treatment of cancer” (ArQule, Inc., priority 2005, dated 2010).

Assays:
Assay in all cases: Cell viability MTS assay
Format in all cases: cell-based, human
NCI-H82 = tested on: NCI-H82
Method: (§1) Cell viability was determined by measuring the activity of dehydrogenase enzymes in metabolically active cells using a tetrazolium compound, MTS. The assay was performed as described in Promega Technical Bulletin No. 169 (CellTiter 96 Aqueous Non-Radioactive Cell Proliferation Assay). Thirteen human cancer cell lines were assayed (see, e.g., Table 1). Cells were maintained at 37° C., 5% CO2. Adherent cells were maintained DMEM media (4.5 g/L glucose) supplemented with 15% heat-inactivated FBS, 10 mM L-glutamine, and 10 mM Hepes pH 7.5. Suspension cells were maintained in RPMI 1640 media, supplemented with 10% heat-inactivated FBS and 10 mM Hepes pH 7.5. Briefly, cells were seeded in 96-well plates as set forth in Table 1 and incubated for 16-24 hours. Candidate compounds were serially diluted in DMSO, further diluted in cell culture media, and then added to cells (final DMSO concentration of 0.33%). Cells were incubated in the presence of candidate compound for 72 hours. MTS stock solution (MTS 2 gm/L, PMS […] in PBS) was added to the cells (final concentration MTS […] and PMS 7.67 mg/L) and incubated for 4 hours. SDS was added to a final concentration of 1.4% and absorbance at 490 nm was measured within two hours using a platereader. The IC50 was defined as the concentration of compound that results in a 50% reduction in the number of viable cells as compwered to control wells treated with DMSO only (0.33%) and was calculated using non-linear regression analyswas. IC50 values were given in Table 2 for the compounds listed.

HT29 = tested on: HT29
Method: as §1

MDA-MB-231 = tested on: MDA-MB-231
Method: as §1

NCI-H69 = tested on: NCI-H69
Method: as §1

NCI-H446 = tested on: NCI-H446
Method: as §1

PC-3 = settings: Homo sapiens, PC-3, 72 hours with compound
Method: as §1

DU-145 = settings: Homo sapiens, DU-145, 72 hours with compound
Method: as §1

SK-MEL-28 = settings: Homo sapiens, SK-MEL-28, 72 hours with compound
Method: as §1

K562 = settings: Homo sapiens, K562, 72 hours with compound
Method: as §1

A549 = settings: Homo sapiens, A549, 72 hours with compound
Method: as §1

SKOV-3 = settings: Homo sapiens, SK-OV-3, 72 hours with compound
Method: as §1

HCT-116 = settings: Homo sapiens, HCT-116, 72 hours with compound
Method: as §1

MCF7 = settings: Homo sapiens, MCF7, 72 hours with compound
Method: as §1

[1] = Homo sapiens, NCI-H82, 72 hours with compound
[2] = Homo sapiens, HT-29, 72 hours with compound
[3] = Homo sapiens, MDA-MB-231, 72 hours with compound
[4] = Homo sapiens, NCI-H446, 72 hours with compound

Row | Molecule | IC50 (NCI-H82; 72 hours with compound) [µM] | IC50 (HT29; 72 hours with compound) [µM] | IC50 (MDA-MB-231; 72 hours with compound) [µM] | IC50 (NCI-H69; 72 hours with compound) [µM] | IC50 (NCI-H446; 72 hours with compound) [µM] | IC50 (NCI-H82; [1]) [µM] | IC50 (HT29; [2]) [µM] | IC50 (MDA-MB-231; [3]) [µM] | IC50 (NCI-H69; Homo sapiens, NCI-H69, 72 hours with compound) [µM] | IC50 (NCI-H446; [4]) [µM] | IC50 (PC-3) [µM] | IC50 (DU-145) [µM] | IC50 (SK-MEL-28) [µM] | IC50 (K562) [µM] | IC50 (A549) [µM] | IC50 (SKOV-3) [µM] | IC50 (HCT-116) [µM] | IC50 (MCF7) [µM]
1 | O=C1NC(=O)[C@@H](c2cn3c4c(cccc24)CCC3)[C@@H]1c1cccs1 (racemic) [Example 47, (±)-Trans-3-(5,6-dihydro-4H-pyrrolo[3,2,1-ij]quinolin-1yl)-4-(2-thiophen-2-yl)pyrrolidine-2,5-dione] | 7.25 | 18.3 | 19.9 | 4.45 | 9.82 | – | – | – | – | – | – | – | – | – | – | – | – | –
2 | O=C1NC(=O)[C@@H](c2cn3c4c(cccc24)CCC3)[C@@H]1c1ccccc1Cl (racemic) [Example 50, (±)-Trans-3-(5,6-dihydro-4H-pyrrolo[3,2,1-ij]quinolin-1yl)-4-(2-chlorophenyl)-pyrrolidine-2,5-dione] | – | – | – | – | – | 4.65 | 8.51 | 4.56 | 5.41 | 4.22 | – | – | – | – | – | – | – | –
3 | Cn1cc([C@@H]2C(=O)NC(=O)[C@H]2c2cn3c4c(cccc24)CCC3)c2ccccc21 (racemic) [Example 51, (±)-Trans-3-(5,6-dihydro-4H-pyrrolo[3,2,1-ij]quinolin-1yl)-4-(N-methylindol-3-yl)pyrrolidine-2,5-dione] | – | – | – | – | – | 37.7 | – | 67.3 | – | 65.7 | – | – | – | – | – | – | – | –
4 | O=C1NC(=O)[C@@H](c2cn3c4c(cccc24)CCC3)[C@H]1c1cccc(Cl)c1 (racemic) [Example 55, (±)-Cis-3-(5,6-dihydro-4H-pyrrolo[3,2,1-ij]quinolin-1yl)-4-(3-chlorophenyl)-pyrrolidine-2,5-dione] | – | – | – | – | – | – | 13.1 | 15.5 | – | – | 12.9 | 35.7 | > 100 | 3.47 | 13.1 | 11.6 | 12.1 | > 100
5 | CN1C(=O)[C@H](c2cn(C)c3ccccc23)[C@H](c2cn3c4c(cccc24)CCC3)C1=O (racemic) [Example 61, (±)-cis-3-(5,6-dihydro-4H-pyrrolo[3,2,1-ij]quinolin-1-yl)-4(1-methylindol-3-yl)-1-methylpyrrolidine-2,5-dione] | – | – | – | – | – | – | > 100 | > 100 | – | – | > 100 | > 100 | > 100 | 18.7 | 78.9 | 37.6 | 96.2 | > 100
6 | O=C1NC(=O)[C@@H](c2cn3c4c(cccc24)CCC3)[C@H]1c1c[nH]c2ccccc12 [3(R),4(S)-3-(5,6-dihydro-4H-pyrrolo[3,2,1-ij]quinolin-1-yl)-4(1H-indol-3-yl)pyrrolidine-2,5-dione] | 1.49 | 5.5 | 3.69 | 1.85 | 1.27 | – | – | – | – | – | – | – | – | – | – | – | – | –
7 | O=C1NC(=O)[C@@H](c2c[nH]c3ccccc23)[C@H]1c1cn2c3c(cccc13)CCC2 [3(S),4(R)-3-(5,6-dihydro-4H-pyrrolo[3,2,1-ij]quinolin-1-yl)-4(1H-indol-3-yl)pyrrolidine-2,5-dione] | 1.77 | 9.71 | 5.17 | 2.07 | 1.42 | – | – | – | – | – | – | – | – | – | – | – | – | –
8 | O=C1NC(=O)C(c2cn3c4c(cccc24)CCC3)=C1c1cccc2ccccc12 [Example 19, 3-(5,6-Dihydro-4H-pyrrolo[3,2,1-ij]quinolin-1-yl)-4-naphthalene-1-yl-pyrrole-2,5-dione] | – | – | – | – | – | – | 46.8 | 70.5 | – | – | 96.2 | > 100 | 39.6 | 14 | 41 | 36.2 | 26.2 | > 100
9 | O=C1NC(=O)C(c2cn3c4c(cccc24)CCC3)=C1c1ccccc1Br [Example 21, 3-(5,6-Dihydro-4H-pyrrolo[3,2,1-ij]quinolin-1-yl)-4-(2-bromo-phenyl)-pyrrole-2,5-dione] | – | – | – | – | – | – | 56.8 | 30 | – | – | 22.2 | 21.8 | > 100 | 6.42 | 28.6 | 30.2 | 5.44 | > 100
10 | (±)-Trans-3-(5,6-dihydro-4H-pyrrolo[3,2,1-ij]quinolin-1yl)-4-(N-methylindol-3-yl)pyrrolidine-2,5-dione [Example 51] | – | 66.8 | – | 37.7 | – | – | – | – | – | – | – | – | – | – | – | – | – | –
